The record followed here is PubChem BioAssay (NCI).

Test systems include CAKI-1 renal; UO-31 renal; NCI-H522 lung; OVCAR-8 ovarian; LOX IMVI melanoma; HS 578T breast; COLO 205 colon; MCF7 breast; NCI-H23 lung; EKVX NSCLC.
Holding throughout (assay): inhibition of tumour cell growth, NCI panel, 48 h

Each structure is given as a SMILES string.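 Five concentrations, 48 hours, 96-well plates. GI50 is the concentration that inhibits growth by half. TGI is the concentration that stops growth completely.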

As for `CCN(CC)CCCC(C)N=C(C1=C(C(=NC(C)CCCN(CC)CC)c2cccc(OC)c2)C(=O)NC1=O)c1cccc(OC)c1` (stereo not drawn), the GI50 with CAKI-1 renal was 1.66 µM; with UO-31 renal it was 1.39 µM; in the test on NCI-H522 lung, 0.989 µM; in the test with OVCAR-8 ovarian, 1.18 µM; in the test on LOX IMVI melanoma, 0.992 µM; in the test with HS 578T breast, 4.24 µM. Also, the GI50 is 0.772 µM with COLO 205 colon, 1.25 µM in the test with MCF7 breast and 2.52 µM in the test on NCI-H23 lung. Besides, the TGI with CAKI-1 renal came to 8.62 µM; in the test with UO-31 renal it was 4.27 µM; in the test on NCI-H522 lung, 2.03 µM; in the test with OVCAR-8 ovarian, 6.9 µM; in the test with LOX IMVI melanoma, 2.06 µM; with HS 578T breast, 14.5 µM. For the same compound, the TGI is 1.56 µM with COLO 205 colon, 3.51 µM with MCF7 breast and 9.11 µM in the test with NCI-H23 lung.

For `C=C1CCC2C(C)(COC(=O)CC)C(OC(=O)CC)CCC2(C)C1C/C=C1/C(=O)OCC1OC(=O)CC` (stereo not drawn), the GI50 in the test on CAKI-1 renal was 1.65 µM; with UO-31 renal it was 1.88 µM; in the test on NCI-H522 lung, 0.346 µM; in the test with OVCAR-8 ovarian it was 0.634 µM; with LOX IMVI melanoma, 1.51 µM; with HS 578T breast, 3.41 µM. Further, the GI50 in the test on EKVX NSCLC was 7.96 µM; with COLO 205 colon it was 2.1 µM; with NCI-H23 lung, 3.39 µM. Also, the TGI was 3.37 µM with CAKI-1 renal; 3.38 µM in the test on UO-31 renal; 1.7 µM in the test on NCI-H522 lung; 2.13 µM in the test on OVCAR-8 ovarian; 3.01 µM with LOX IMVI melanoma; 25.5 µM in the test with HS 578T breast. In addition, the TGI was determined as 22.1 µM in the test on EKVX NSCLC, 3.96 µM in the test with COLO 205 colon and 13.2 µM in the test on NCI-H23 lung.

For the compound `O=C(OCc1ncc(-c2ccc(C(F)(F)F)cc2)c(NC2CCCCCC2)n1)c1c(F)c(F)c(F)c(F)c1F`, the GI50 with CAKI-1 renal is 17.5 µM; with UO-31 renal it was 8.12 µM; with NCI-H522 lung, 3.9 µM; in the test on OVCAR-8 ovarian it was 12.2 µM; with HS 578T breast, 16.2 µM; in the test with COLO 205 colon, 18 µM. In addition, the GI50 was 2.06 µM with MCF7 breast and 10.6 µM in the test with NCI-H23 lung. For the same compound, the TGI is 37.3 µM in the test on CAKI-1 renal; 21.3 µM in the test with UO-31 renal; 14.6 µM in the test on NCI-H522 lung; 34 µM in the test on OVCAR-8 ovarian; 51.9 µM in the test with HS 578T breast; 37.8 µM in the test with COLO 205 colon. Also, the TGI in the test with MCF7 breast came to 5.81 µM; in the test on NCI-H23 lung it was 28 µM.

As to `O=S1Nc2c(Cl)cc(Cl)c3c(Cl)cc(Cl)c(c23)N1`, the TGI in the test with CAKI-1 renal is 95.2 µM; in the test on UO-31 renal, above 100 µM; with NCI-H522 lung, 89.8 µM; in the test on OVCAR-8 ovarian, above 100 µM; in the test on LOX IMVI melanoma, above 100 µM; in the test with EKVX NSCLC, above 100 µM. Moreover, the TGI in the test with COLO 205 colon and with NCI-H23 lung was above 100 µM in each case.

`N#CC1=C(N)NC(N2CCOCC2)=NC12Nc1ccccc1N2`: the GI50 with CAKI-1 renal is 10.8 µM; in the test on UO-31 renal, 12.5 µM; in the test on NCI-H522 lung, 23.5 µM; in the test with OVCAR-8 ovarian, 37.5 µM; in the test with LOX IMVI melanoma, 23.5 µM; in the test with HS 578T breast, 18.9 µM. In addition, the GI50 with EKVX NSCLC is above 100 µM; in the test on COLO 205 colon, 24.1 µM; in the test on NCI-H23 lung, 21.9 µM. Further, the TGI is 37.8 µM with CAKI-1 renal; 81.4 µM in the test on UO-31 renal; 59.3 µM in the test with NCI-H522 lung; above 100 µM with OVCAR-8 ovarian; 62.5 µM in the test on LOX IMVI melanoma; 54.2 µM in the test with HS 578T breast. Moreover, the TGI with EKVX NSCLC, in the test with COLO 205 colon and in the test with NCI-H23 lung was above 100 µM in each case.

Turning to `CCC(CNc1cc(OC)cc2cccnc12)NC1CCCCC1` (stereo not drawn), the GI50 is 21.9 µM in the test on CAKI-1 renal; 4.47 µM with UO-31 renal; 51.1 µM in the test with OVCAR-8 ovarian; 28.6 µM in the test with LOX IMVI melanoma; 15.2 µM in the test on HS 578T breast; 40.1 µM in the test with EKVX NSCLC. Moreover, the GI50 in the test on COLO 205 colon was 11.3 µM; in the test on MCF7 breast it was 20.7 µM; in the test on NCI-H23 lung, 51.3 µM. In addition, the TGI with CAKI-1 renal was above 100 µM; in the test with UO-31 renal it was above 100 µM; with OVCAR-8 ovarian, above 100 µM; with LOX IMVI melanoma, above 100 µM; in the test on HS 578T breast it was 95.6 µM; with EKVX NSCLC, above 100 µM. The TGI in the test on COLO 205 colon was 24.6 µM; with MCF7 breast, above 100 µM; with NCI-H23 lung, above 100 µM.

Regarding `COc1cccc(NC(=O)c2sc3nc4c(cc3c2N)C(=O)CCC4)c1`, the GI50 in the test with CAKI-1 renal was 0.882 µM; in the test with UO-31 renal it was 0.449 µM; with NCI-H522 lung, 0.0499 µM; with OVCAR-8 ovarian, 0.402 µM; with LOX IMVI melanoma, 1.71 µM; with HS 578T breast it was 0.0816 µM. Besides, the GI50 in the test with COLO 205 colon was 0.0834 µM; with MCF7 breast it was 0.0443 µM; with NCI-H23 lung, 0.346 µM. Moreover, the TGI in the test on CAKI-1 renal was above 100 µM; in the test with UO-31 renal, above 100 µM; in the test on NCI-H522 lung it was 2.41 µM; in the test with OVCAR-8 ovarian, above 100 µM; in the test with LOX IMVI melanoma it was above 100 µM; in the test on HS 578T breast, above 100 µM. Besides, the values for the TGI in the test on COLO 205 colon, with MCF7 breast and in the test with NCI-H23 lung were 2.15 µM, above 100 µM and above 100 µM, respectively.

Take `C/C=C/CC(C)[C@@H](O)[C@H](NC)C(=O)O` (stereo partly drawn): the TGI in the test with CAKI-1 renal, with UO-31 renal, in the test on NCI-H522 lung, in the test with OVCAR-8 ovarian, in the test on LOX IMVI melanoma and with EKVX NSCLC was above 100 µM each time. Further, the TGI with COLO 205 colon and with NCI-H23 lung was above 100 µM in each case.

Take `N#CCN/C=C\C(=O)c1ccc(Cl)cc1`: the GI50 is 30.1 µM with CAKI-1 renal; 42.1 µM in the test on UO-31 renal; above 100 µM in the test on NCI-H522 lung; 38.4 µM with OVCAR-8 ovarian; 31.5 µM in the test on LOX IMVI melanoma; 37.1 µM in the test with HS 578T breast. Moreover, the GI50 with COLO 205 colon was 32.7 µM; in the test with MCF7 breast it was 32.5 µM; in the test with NCI-H23 lung it was 32.9 µM. The TGI in the test on CAKI-1 renal, in the test on UO-31 renal, with NCI-H522 lung, in the test on OVCAR-8 ovarian, in the test on LOX IMVI melanoma and with HS 578T breast was above 100 µM each time. Besides, the TGI was above 100 µM in the test with COLO 205 colon, above 100 µM with MCF7 breast and 86.2 µM in the test on NCI-H23 lung.

In the case of `O=[N+]([O-])CCc1cccc([N+](=O)[O-])c1`, the TGI with CAKI-1 renal, in the test on UO-31 renal, in the test with NCI-H522 lung, in the test on OVCAR-8 ovarian, in the test on LOX IMVI melanoma and in the test on EKVX NSCLC was above 100 µM in each case. The TGI in the test with COLO 205 colon and with NCI-H23 lung was above 100 µM each time.
